Literature values as cited in patent US20260166131A1, “METHOD FOR PROMOTING PATHOLOGICAL TDP-43 PROTEIN DEGRADATION, AND DRUG” (TALENGEN INTERNATIONAL LIMITED, priority 2022, published 2026).
“And” between values parts separate entries of the source, which are not always exact repeats. Identical values can stand only once. Like-named read-outs stand apart in the source and are kept apart here.

System: ALS patients
Settings: for ALSFRS-R score before dosing: literature
[1] = Edaravone 6 months, intravenous injection
[2] = Riluzole 6 months, taking orally

Compound	ALSFRS-R score after dosing [1]	ALSFRS-R scoring change [1]	ALSFRS-R score before dosing (Edaravone)	ALSFRS-R score after dosing [2]	ALSFRS-R scoring change [2]	ALSFRS-R score before dosing (Riluzole)
CC1=NN(c2ccccc2)C(=O)C1 [Edaravone]	36.89	−5.01±0.64 points and −5.01 points	41.9			
Nc1nc2ccc(OC(F)(F)F)cc2s1 [Riluzole]				33.2	−7.0+7.1 points and −7.0 points	40.2
